Converted amounts (≈) assume the structure as drawn. Like-named read-outs stand apart in the source and are kept apart here.
Columns and labels:
[1] = test system: Yersinia enterocolitica IID 981; test: MIC, in vitro antibacterial activity (standard strains); type: cell-based; conditions: Yersinia enterocolitica, IID981; 10^6 cells/ml; Gram -; read-out: MIC
[2] = test system: C. perfringens KYA 13123; test: microbe, parasite or virus in culture; type: cell-based; conditions: Clostridium perfringens, KYA13123
[3] = test system: K. pneumoniae 1-220S; test: MIC, in vitro antibacterial activity (standard strains); type: cell-based, Klebsiella pneumoniae; conditions: Klebsiella pneumoniae, 1220S; 10^6 cells/ml; Gram -; read-out: MIC
[4] = test system: Propionibacterium acens 11828; test: as above; type: cell-based; conditions: Propionibacterium, 11828; 10^6 cells/ml; Gram +; read-out: MIC
[5] = test system: E. coli ATCC 10536; test: as above; type: cell-based, Escherichia coli; conditions: Escherichia coli, ATCC10536; 10^6 cells/ml; Gram -; read-out: MIC
[6] = test system: Peptococcus magnus KY 017; test: as above; type: cell-based; conditions: Finegoldia magna, KY017; 10^6 cells/ml; Gram +; read-out: MIC
[7] = test system: E. coli ML 4707; test: as above; type: cell-based, Escherichia coli; conditions: Escherichia coli, ML4707, 10^6 cells/ml; Gram -; Table 1; read-out: MIC
[8] = test system: S. pneumoniae IID 552; test: as above; type: cell-based; conditions: Streptococcus pneumoniae, IID552; 10^6 cells/ml; Gram +; read-out: MIC
[9] = test system: Morganella morganii IID 602; test: as above; type: cell-based; conditions: Morganella morganii, IID602; 10^6 cells/ml; Gram -; read-out: MIC
[10] = test system: Pst. micros UPI 5464-1; test: as above; type: cell-based; conditions: Parvimonas micra, UPI54641; 10^6 cells/ml; Gram +; read-out: MIC
[11] = test system: S. epidermidis IID 866; test: as above; type: cell-based; conditions: Staphylococcus epidermidis, IID866; 10^6 cells/ml; Gram +; read-out: MIC
[12] = test system: F. varium KYA 8501; test: as above; type: cell-based; conditions: Fusobacterium varium, KYA8501; 10^6 cells/ml; Gram -; read-out: MIC
[13] = test system: E. faecalis IID 682; test: as above; type: cell-based; conditions: Enterococcus faecalis, IID682; 10^6 cells/ml; Gram +; read-out: MIC
[14] = test system: P. mirabilis IID 994; test: as above; type: cell-based; conditions: Proteus mirabilis, IID994; 10^6 cells/ml; Gram -; read-out: MIC
[15] = test system: Serratia marcescens IID 618; test: as above; type: cell-based; conditions: Serratia marcescens, IID618; 10^6 cells/ml; Gram -; read-out: MIC
[16] = test system: Pseudomonas aeruginosa V-1; test: as above; type: cell-based; conditions: Pseudomonas aeruginosa, V1
[17] = test system: C. ramosum; test: as above; type: cell-based; conditions: Thomasclavelia ramosa; 10^6 cells/ml; Gram +; read-out: MIC
[18] = test system: B. fragilis 0558; test: as above; type: cell-based, Bacteroides fragilis; conditions: Bacteroides fragilis, 0558; 10^6 cells/ml; Gram -; read-out: MIC
[19] = test system: Citrobacter freundii IID 976; test: as above; type: cell-based; conditions: Citrobacter freundii, IID976; 10^6 cells/ml; Gram -; read-out: MIC
[20] = test system: B. thetaiotaomicron (0661); test: as above; type: cell-based; conditions: Bacteroides thetaiotaomicron; 10^6 cells/ml; Gram -; read-out: MIC
[21] = test system: S. aureus IID 670 (Terajima); test: as above; type: cell-based, Staphylococcus aureus; conditions: Staphylococcus aureus, IID670; 10^6 cells/ml; Gram +; read-out: MIC
[22] = test system: P. aeruginosa IFO 12689; test: as above; type: cell-based, Pseudomonas aeruginosa; conditions: Pseudomonas aeruginosa, IFO12689; 10^6 cells/ml; Gram -; read-out: MIC
[23] = test system: Eubacterium lentum GAI 5242; test: as above; type: cell-based; conditions: Eggerthella lenta, GAI5242; 10^6 cells/ml; Gram +; read-out: MIC
[24] = test system: Peptostreptococcus anaerobius KYA 27337; test: as above; type: cell-based; conditions: Peptostreptococcus anaerobius, KYA27337; 10^6 cells/ml; Gram +; read-out: MIC
[25] = test system: Bacillus subtilis PCI 219; test: as above; type: cell-based; conditions: Bacillus subtilis, PCI219; 10^6 cells/ml; Gram +; read-out: MIC
[26] = test system: F. necrophorum S-45; test: as above; type: cell-based; conditions: Fusobacterium necrophorum, S45; 10^6 cells/ml; Gram -; read-out: MIC
[27] = test system: B. distasonis 8503; test: as above; type: cell-based; conditions: Parabacteroides distasonis, 8503; 10^6 cells/ml; Gram -; read-out: MIC
[28] = test system: Bacteroides fragilis GM 7000; test: as above; type: cell-based; conditions: Bacteroides fragilis, GM7000; 10^6 cells/ml; Gram -; read-out: MIC
[29] = test system: Proteus vulgaris IFO 3167; test: as above; type: cell-based; conditions: Proteus vulgaris, IFO3167; 10^6 cells/ml; Gram -; read-out: MIC
[30] = test system: P. aeruginosa IID 1210; test: as above; type: cell-based, Pseudomonas aeruginosa; conditions: Pseudomonas aeruginosa, IID1210; 10^6 cells/ml; Gram -; read-out: MIC
[31] = test system: B. vulgatus KYA 29327; test: as above; type: cell-based; conditions: Phocaeicola vulgatus, KYA29327; 10^6 cells/ml; Gram -; read-out: MIC
[32] = test system: Fusobacterium mortiferum 4249; test: as above; type: cell-based; conditions: Fusobacterium mortiferum, 4249; 10^6 cells/ml; Gram -; read-out: MIC

| SMILES | MIC [1] [µg/mL] | MIC [2] [µg/mL] | MIC [3] [µg/mL] | MIC [4] [µg/mL] | MIC [5] [µg/mL] | MIC [6] [µg/mL] | MIC [7] [µg/mL] | MIC [8] [µg/mL] | MIC [9] [µg/mL] | MIC [10] [µg/mL] | MIC [11] [µg/mL] | MIC [12] [µg/mL] | MIC [13] [µg/mL] | MIC [14] [µg/mL] | MIC [15] [µg/mL] | MIC [17] [µg/mL] | MIC [18] [µg/mL] | MIC [19] [µg/mL] | MIC [20] [µg/mL] | MIC [21] [µg/mL] | further results |
| --- | --- | --- | --- | --- | --- | --- | --- | --- | --- | --- | --- | --- | --- | --- | --- | --- | --- | --- | --- | --- | --- |
| C[C@H]1CN(c2c(F)cc3c(=O)c(C(=O)O)cn(CCF)c3c2F)C[C@H]1N (relative stereo) [Example 25, 7-(cis-b 3-Amino-4-methyl-1-pyrrolidinyl)-6,8-difluoro-1-(2-fluoroethyl)-1,4-dihydro-4-oxo-3-quinolinecarboxylic acid] | 0.1 (≈ 0.271 µM) | 0.78 (≈ 2.11 µM) | 0.2 (≈ 0.542 µM) | 25 (≈ 67.7 µM) | 0.05 (≈ 0.135 µM) | 1.56 (≈ 4.22 µM) | 0.05 (≈ 0.135 µM) | 0.78 (≈ 2.11 µM) | 0.1 (≈ 0.271 µM) | 0.78 (≈ 2.11 µM) | 0.39 (≈ 1.06 µM) | 6.25 (≈ 16.9 µM) | 0.78 (≈ 2.11 µM) | 0.1 (≈ 0.271 µM) | 0.1 (≈ 0.271 µM) | 25 (≈ 67.7 µM) | 3.13 (≈ 8.47 µM) | 0.1 (≈ 0.271 µM) | 6.25 (≈ 16.9 µM) | 0.39 (≈ 1.06 µM) | MIC [16]: 0.78 µg/mL (≈ 2.11 µM); MIC [22]: 1.56 µg/mL (≈ 4.22 µM); MIC [23]: 1.56 µg/mL (≈ 4.22 µM); MIC [24]: 3.13 µg/mL (≈ 8.47 µM); MIC [25]: 0.1 µg/mL (≈ 0.271 µM); MIC [26]: 3.13 µg/mL (≈ 8.47 µM); MIC [27]: 6.25 µg/mL (≈ 16.9 µM); MIC [28]: 6.25 µg/mL (≈ 16.9 µM); MIC [29]: 0.05 µg/mL (≈ 0.135 µM); MIC [30]: 6.25 µg/mL (≈ 16.9 µM); MIC [31]: 6.25 µg/mL (≈ 16.9 µM); MIC [32]: 3.13 µg/mL (≈ 8.47 µM) |
| CC1CN(c2c(F)cc3c(=O)c(C(=O)O)cn(C4CC4)c3c2Cl)CC1CN (stereo not shown) [Example 1, 7-(3-Aminomethyl-4-methyl-1-pyrrolidinyl)-8-chloro-1-cyclopropyl-6-fluoro-1,4-dihydro-4-oxo-3-quinolinecarboxylic acid] | 0.05 (≈ 0.127 µM) | ≤ 0.05 | 0.05 (≈ 0.127 µM) | 0.2 (≈ 0.508 µM) | 0.025 (≈ 0.0635 µM) | ≤ 0.05 | 0.025 (≈ 0.0635 µM) | 0.0125 (≈ 0.0317 µM) | 0.1 (≈ 0.254 µM) | 0.39 (≈ 0.99 µM) | 0.0125 (≈ 0.0317 µM) | 0.39 (≈ 0.99 µM) | 0.05 (≈ 0.127 µM) | 0.05 (≈ 0.127 µM) | 0.1 (≈ 0.254 µM) | 0.2 (≈ 0.508 µM) | ≤ 0.05 | 0.05 (≈ 0.127 µM) | 0.1 (≈ 0.254 µM) | 0.025 (≈ 0.0635 µM) | MIC ([16]; 10^6 cells/ml, Gram -, read-out: MIC): 0.1 µg/mL (≈ 0.254 µM); MIC [22]: 0.78 µg/mL (≈ 1.98 µM); MIC [23]: 0.2 µg/mL (≈ 0.508 µM); MIC [24]: ≤ 0.05 µg/mL; MIC [25]: 0.0125 µg/mL (≈ 0.0317 µM); MIC [26]: 0.1 µg/mL (≈ 0.254 µM); MIC [27]: 0.39 µg/mL (≈ 0.99 µM); MIC [28]: ≤ 0.1 µg/mL; MIC [29]: 0.05 µg/mL (≈ 0.127 µM); MIC [30]: 0.78 µg/mL (≈ 1.98 µM); MIC [31]: 0.1 µg/mL (≈ 0.254 µM); MIC [32]: ≤ 0.05 µg/mL |
